Assay results from patent US12269804B2, “Quinoxalinone compounds, compositions, methods, and kits for increasing genome editing efficiency” (VERTEX PHARMACEUTICALS INCORPORATED, priority 2018, dated 2025).
Read-outs that look alike come from different tables or passages of the source.

What was measured:
Type in all cases: cell-based, human
mPB CD34+ cells, NAV1.7 = assay: Gene editing rates (TIDE assay) in mPB CD34+ cells electroporated with RNP (spCAS9 protein+NAV1.7 sgRNA) and NAV1.7 Non-PAM ssODN; conditions: for EC50: Homo sapiens
Description: (§1) Primary human mobilized peripheral blood (mPB) CD34^+ hematopoietic stem and progenitor cells (HSPCs) were purchased from Hemacare or AllCells. Cells were thawed, washed and resuspended in complete medium comprised of serum free medium CellGro SCGM (CellGenix) and supplemented with cytokine mix (300 ng/mL SCF, 300 ng/mL Flt3L, 100 ng/mL TPO, 60 ng/ml IL-3) at a density of 1-3×10^5 cells per mL and incubated at 37° C./5% CO2 incubator for 48 hours prior to electroporation.
(§2) CD34+ cells were electroporated two days post thaw. The following conditions were used for electroporation: 2.0×E6 cells, 15 μg Cas9 protein (Feldan), 15 μg sgRNA, 1 μM of ssODN in 100 μl of P3 electroporation buffer using program CA-137. Electroporated cells were transferred by equally dividing them into eight wells of a 24-well plate, each well containing various concentrations of DNA-PK inhibitors. Cells were incubated at 37° C. in a 5% CO2 incubator for two days and evaluated for cell viability and gene editing.
(§3) Genomic DNA was isolated by incubating cells with 50 μl DNA Quickextract solution (Epicentre) per well of 96 well plate for 30 min at 37° C. Cellular extract was mixed and transferred into a PCR plate and then incubated for 6 min at 65° C. and 2 min at 98° C. PCR reactions were carried out with 1 μl of Genomic DNA containing solution by using AccuPrime™ Pfx DNA Polymerase (Thermofisher, 12344024). PCR conditions were 4 min at 94° C. (1×), followed by 15 s at 94° C., 15 s at 60° C. and 1 min at […] (40×). The PCR products were purified and then Sanger sequenced by GENEWIZ. The following primer pairs spanning the target site were used for PCR (FW, forward; RV, reverse). Primers used by Sanger Sequencing are indicated by an asterisk (*): […]
(§4) Each sequence chromatogram was analyzed using TIDE (Tracking of Indels by Decomposition) software (http://tide.nki.nl) (See also Brinkman et al., Nucleic Acids Research, Volume 42, Issue 22, 16 Dec. 2014, Pages e168). Mock-electroporated samples were used as the reference sequence, and parameters were set to an indel size of 30 nt, and the decomposition window was set to cover the largest possible window with high-quality traces. Total indel (insertion and deletions) rates were obtained directly from TIDE plots. HDR rates were the percentage of events with an insertion of 10 Nucleotides. NHEJ Rates were calculated as Total Indel rate—HDR rate. GraphPad Prism 7 software was used to make Graphs and to calculate the all Statistical information.
To investigate the effect of DNA-PK inhibitors on HDR gene editing rates, mPB CD34+ cells were electroporated with RNP (spCAS9 protein+NAV1.7 sgRNA) and NAV1.7 Non-PAM ssODN. Cells were then incubated with various concentrations of Compound 1. Gene editing rates were determined by using TIDE assay 48 h after electroporation. Gene editing rates were expressed in percentages and classified as HDR and NHEJ as shown in FIG. 3A (Donor B) and FIG. 3B (Donor C. Cell survival rates are shown in percentages where control cells were set as 100%.

[1] = system: Induced Pluripotent Stem Cells (iPSCs), AAVS1; assay: Gene editing rates (TIDE assay) in iPSCs electroporated with spCAS9 mRNA, AAVS1 sgRNA and AAVS1 PAM ssODN
Description: Induced Pluripotent Stem Cells (iPSCs) were derived from Human dermal fibroblasts after viral transduction with Yamanaka's reprogramming factors, Oct4, Sox2, KLF4 and c-Myc. Derived iPSCs were able to differentiate into 3 germ layers and contained a normal karyotype with 23 pairs of Chromosomes.
For iPSCs the following conditions were used: 2.0×E5 Cells, 250 ng of CAS9 mRNA, 500 ng of sgRNA and 0.66 μM of ssODN in 20 μl of P3 Electroporation buffer by using program CA-137. The electroporated cells were transferred to a 96 well plate containing 100 μl of mTEsR1 media (Stem Cell Technologies) supplemented with 10 μM ROCK Inhibitor Y-27632 (Stem Cell Technologies) with or without DNA-PK inhibitors and then incubated at 37° C. in a 5% CO2 incubator.
as §3, §4
(§5) To investigate the effect of DNA-PK inhibitors on HDR gene editing rates, iPSCs were electroporated with spCAS9 mRNA, AAVS1 sgRNA and AAVS1 PAM ssODN and then incubated with different concentrations of Compound 1 or left untreated (Control). Gene editing rates were determined by using TIDE assay 72 hs after electroporation. Gene editing rates were expressed in percentages and classified as HDR and NHEJ. Cell survival rates are shown in percentages where control cells were set as 100%.

[2] = system: Bronchial Epithelial Cells (BECs), AAVS1; assay: Gene editing rates (TIDE assay) in BECs electroporated with spCAS9 mRNA, AAVS1 sgRNA and AAVS1 PAM ssODN
Description: (§6) Bronchial Epithelial Cells (BECs) were derived from human donors diagnosed with Cystic Fibrosis with a CFTR dF508/dF508 genotype.
(§7) For BECs, the following conditions were used for electroporation: 1.8×E5 Cells, 250 ng of CAS9 mRNA, 500 ng of sgRNA and 0.66 μM of ssODN in 20 μl of P4 Electroporation buffer by using program CM-138. The electroporated cells were transferred to a 96 well plate containing 100 μl of BEC culture media supplemented with DNA-PK inhibitors or left untreated. Cells were incubated at 37° C. in a 5% CO2 incubator.
as §3, with “reverse).” for “reverse). Primers used by Sanger Sequencing are indicated by an asterisk (*):”
(§8) Each sequence chromatogram was analyzed using TIDE (Tracking of Indels by Decomposition) software (http://tide.nki.nl) (See also Brinkman et al., Nucleic Acids Research, Volume 42, Issue 22, 16 Dec. 2014, Pages e168). […] NHEJ Rates were calculated as Total Indel rate—HDR rate. […]
To investigate the gene editing kinetics at EC max, BECs were electroporated with spCAS9 mRNA, AAVS1 sgRNA and AAVS1 PAM ssODN and then incubated at different times with 10 μM Compound 1 or left untreated (Control). Gene editing rates were determined by using TIDE assay and expressed in percentages of HDR and NHEJ. […]
BECs were electroporated with spCAS9 mRNA, AAVS1 sgRNA and AAVS1 PAM ssODN and then incubated at different times with 0.7 μM Compound 1 or left untreated (Control). Gene editing rates were determined by using TIDE assay and expressed in percentages of HDR and NHEJ. […]

CD34+ cells, AAVS1 = assay: HDR gene editing in CD34+ cells at AAVS1 (Summary Table); conditions: for EC50: Homo sapiens
Description: as §1, §2, §3, §4

[3] = system: Bronchial Epithelial Cells (BECs), NAV1.7; assay: Gene editing rates (TIDE assay) in BECs electroporated with spCAS9 mRNA, NAV1.7 sgRNA and NAV1.7 Non-PAM ssODN
Description: as §6, §7, §3, §4
as §5, with “FIG. 1 illustrates the design of the gene editing assays used in the examples below. To” for “To”, “BECs” for “iPSCs”, “NAV1.7” for “AAVS1”, “NAV1.7 Non-PAM” for “AAVS1 PAM”, “concentrations” for “concentrations of”

[4] = system: Bronchial Epithelial Cells (BECs), AAVS1; assay: HDR rates in BECs, gene editing components delivered by lipid-mediated transfection (AAVS1); conditions: AAVS1, lipid-based transfection, 72 hs after transfection
Description: as §6
One day prior to transfection, BECs were seeded in a 96-well plate at a cell density of 1×E4 cells per well in BECs culture media. First, 0.15 μl of MessengerMax (ThermoFisher, LMRNA 003) was diluted into 5 μl of Opti-MEM and incubated for 10 min at room temperature. Meanwhile, 80 ng of Cas9 mRNA (Trilink, L-7206), 20 ng of sgRNA (Synthego) and 1 picomol of ssODN were added to 5 μl of Opti-MEM and then mixed with MessengerMAx solution. The mixture was incubated for 5 min prior to addition to the cells. The entire solution was added to the cells in a well of 96-well plate with 100 μl of culture media with or without DNA-PK inhibitors. Cells were incubated at 37° C. for in a 5% CO2 incubator. […]
as §8
To investigate the effects of lipid-mediated transfection, BEC were transfected with spCAS9 mRNA, AAVS1 sgRNA and AAVS1 PAM ssODN and then incubated with different concentration of Compound 1 or left untreated (Control). Gene editing rates were determined by using TIDE assay 72 hs after transfection.

Cn1c(=O)cnc2cc(N3CCOCC3)cc(O[C@H]3CC[C@@H](Nc4ncccn4)CC3)c21 [Compound 1, 1-methyl-6-morpholino-8-(((1,4-cis)-4-(pyrimidin-2-ylamino)cyclohexyl)oxy)quinoxalin-2(1H)-one]
HDR Max % (mPB CD34+ cells, NAV1.7; CD34+, Donor A, NaV1.7): 82% | HDR Max % (mPB CD34+ cells, NAV1.7; CD34+, Donor B, NaV1.7): 86% | HDR Max % (mPB CD34+ cells, NAV1.7; CD34+, Donor C, NaV1.7): 67% | EC50 (mPB CD34+ cells, NAV1.7; 48 h, CD34+ cells, Donor B, NAV1.7, 48 h after electroporation, read-out: EC50 of HDR): 290 nM | EC50 (mPB CD34+ cells, NAV1.7; 48 h, CD34+ cells, Donor B, NAV1.7, 48 h after electroporation, read-out: EC50 of Indel formation): 350 nM | EC50 (mPB CD34+ cells, NAV1.7; CD34+, Donor A, NaV1.7, read-out: HDR EC50): 390 nM | EC50 (mPB CD34+ cells, NAV1.7; CD34+, Donor B, NaV1.7, read-out: HDR EC50): 290 nM | EC50 (mPB CD34+ cells, NAV1.7; CD34+, Donor C, NaV1.7, read-out: HDR EC50): 110 nM | HDR Max % ([1]; AAVS1): 24% | HDR TOP % ([1]; AAVS1, TIDE assay 72 hs after electroporation): 24.41% | EC50 ([1]; Homo sapiens, iPSC, AAVS1, TIDE assay 72 hs after electroporation, read-out: HDR EC50): 325 nM | IC50 ([1]; Homo sapiens, iPSC, AAVS1, TIDE assay 72 hs after electroporation, read-out: NHEJ IC50): 474 nM | EC50 ([1]; Homo sapiens, iPSC, AAVS1, read-out: HDR EC50): 330 nM | HDR Max % [2]: 66% | Maximum Enhance Concentration (ECmax) [2]: 10 µM | EC50 ([2]; Homo sapiens, Epithelial cell, read-out: Enhance Concentration 50 (EC50)): 700 nM | HDR Max % (CD34+ cells, AAVS1; Donor A): 76% | HDR Max % (CD34+ cells, AAVS1; Donor C): 88% | EC50 (CD34+ cells, AAVS1; Donor A): 120 nM | EC50 (CD34+ cells, AAVS1; Donor C): 180 nM | EC50 ([3]; Homo sapiens, Epithelial cell, NAV1.7, TIDE assay 72 hs after electroporation, read-out: HDR EC50): 445 nM | IC50 ([3]; Homo sapiens, Epithelial cell, NAV1.7, TIDE assay 72 hs after electroporation, read-out: NHEJ IC50): 445 nM | EC50 ([3]; Homo sapiens, Epithelial cell, NaV1.7, read-out: HDR EC50): 720 nM | HDR TOP % ([3]; NAV1.7, TIDE assay 72 hs after electroporation): 69.37% | HDR Max % ([3]; NaV1.7): 69% | HDR efficiency rates [4]: increasing HDR efficiency rates with increasing concentrations
